# Measured values as given in ChEMBL document CHEMBL1201862, “PubChem BioAssay data set” (2004).
#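 All cell lines were grown in 96-well plates and treated with compound for 48 hours. At the GI50, growth is halved.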 Active and inactive are the calls of the source. Cut-off read from the data, not from the text of the source: active = GI50 up to about 1.1 µM and inactive = higher.
# What was measured:
# Assay in all cases: inhibition of tumour cell growth, NCI panel, 48 h
# MOLT-4 = tested on: MOLT-4
# Malme-3M = tested on: Malme-3M
# LOX IMVI = tested on: LOX IMVI
# OVCAR-8 = tested on: OVCAR-8
# SW-620 = tested on: SW-620
# RXF 393 = tested on: RXF 393
# A498 = tested on: A498
# SNB-75 = tested on: SNB-75
# HT-29 = tested on: HT-29
# SR = tested on: SR
# NCI-H460 = tested on: NCI-H460
# M14 = tested on: M14
# IGROV-1 = tested on: IGROV-1
# KM12 = tested on: KM12
# SF-268 = tested on: SF-268
# UO-31 = tested on: UO-31
# T47D = tested on: T47D
# OVCAR-5 = tested on: OVCAR-5
# CAKI-1 = tested on: CAKI-1
# U-251 = tested on: U-251
Compound,GI50 (MOLT-4),GI50 (Malme-3M),GI50 (LOX IMVI),GI50 (OVCAR-8),GI50 (SW-620),GI50 (RXF 393),GI50 (A498),GI50 (SNB-75),GI50 (HT-29),GI50 (SR),GI50 (NCI-H460),GI50 (M14),GI50 (IGROV-1),GI50 (KM12),GI50 (SF-268),GI50 (UO-31),GI50 (T47D),GI50 (OVCAR-5),GI50 (CAKI-1),GI50 (U-251)
O=C(O)C(CO)NC(=O)C1C(C(=O)O)C(c2ccccc2[N+](=O)[O-])C=C(c2ccco2)N1c1ccncc1 (configuration not stated),2.44 µM (inactive),13.4 µM (inactive),1.57 µM (inactive),5.53 µM (inactive),1.87 µM (inactive),1.64 µM (inactive),11.8 µM (inactive),8.97 µM (inactive),1.81 µM (inactive),0.9 µM (active),6.31 µM (inactive),4.32 µM (inactive),2.04 µM (inactive),1.73 µM (inactive),12.6 µM (inactive),3.68 µM (inactive),10.2 µM (inactive),11.7 µM (inactive),8.85 µM (inactive),2.34 µM (inactive)
O=C1c2ccccc2C(=O)c2nn(N=P(CP(=Nn3nc4c(n3)C(=O)c3ccccc3C4=O)(c3ccccc3)c3ccccc3)(c3ccccc3)c3ccccc3)nc21,> 100 µM (inactive),> 100 µM (inactive),> 100 µM (inactive),> 100 µM (inactive),> 100 µM (inactive),> 100 µM (inactive),> 100 µM (inactive),–,> 100 µM (inactive),> 100 µM (inactive),> 100 µM (inactive),> 100 µM (inactive),> 100 µM (inactive),> 100 µM (inactive),> 100 µM (inactive),–,> 100 µM (inactive),> 100 µM (inactive),> 100 µM (inactive),> 100 µM (inactive)
COC1(OC)C2C=CC1C([C@](C)(N)CO)C2 (some centres not stated),> 100 µM (inactive),> 100 µM (inactive),–,> 100 µM (inactive),> 100 µM (inactive),> 100 µM (inactive),> 100 µM (inactive),> 100 µM (inactive),> 100 µM (inactive),> 100 µM (inactive),> 100 µM (inactive),> 100 µM (inactive),> 100 µM (inactive),> 100 µM (inactive),> 100 µM (inactive),> 100 µM (inactive),> 100 µM (inactive),> 100 µM (inactive),> 100 µM (inactive),> 100 µM (inactive)
CNc1ccc2nc(-c3ccc(OC(=O)N(C)C)cc3)cn2c1,17.8 µM (inactive),54.3 µM (inactive),17.7 µM (inactive),15.7 µM (inactive),22.8 µM (inactive),13.3 µM (inactive),17.5 µM (inactive),–,17.7 µM (inactive),19.1 µM (inactive),17.5 µM (inactive),19.2 µM (inactive),17.9 µM (inactive),17.1 µM (inactive),16.5 µM (inactive),21.1 µM (inactive),22.2 µM (inactive),22.9 µM (inactive),21.4 µM (inactive),15.5 µM (inactive)
O=C1Oc2ccccc2N/C1=C/C(=O)c1ccc(Cl)cc1,> 100 µM (inactive),> 100 µM (inactive),–,42.5 µM (inactive),–,> 100 µM (inactive),> 100 µM (inactive),> 100 µM (inactive),> 100 µM (inactive),39.4 µM (inactive),> 100 µM (inactive),> 100 µM (inactive),> 100 µM (inactive),> 100 µM (inactive),> 100 µM (inactive),73.5 µM (inactive),47.5 µM (inactive),> 100 µM (inactive),> 100 µM (inactive),> 100 µM (inactive)
CCOC(C)O[C@H]1C(=O)OCC1(C)C (some centres not stated),34.9 µM (inactive),> 100 µM (inactive),> 100 µM (inactive),> 100 µM (inactive),> 100 µM (inactive),> 100 µM (inactive),> 100 µM (inactive),> 100 µM (inactive),> 100 µM (inactive),> 100 µM (inactive),> 100 µM (inactive),> 100 µM (inactive),> 100 µM (inactive),> 100 µM (inactive),> 100 µM (inactive),> 100 µM (inactive),> 100 µM (inactive),> 100 µM (inactive),> 100 µM (inactive),> 100 µM (inactive)
NC(CCCCNc1ccn(C2OC(CO)C(O)C2O)c(=O)n1)C(=O)O (configuration not stated),73.3 µM (inactive),> 100 µM (inactive),> 100 µM (inactive),73.1 µM (inactive),> 100 µM (inactive),> 100 µM (inactive),> 100 µM (inactive),> 100 µM (inactive),–,> 100 µM (inactive),> 100 µM (inactive),37.8 µM (inactive),65.8 µM (inactive),> 100 µM (inactive),> 100 µM (inactive),> 100 µM (inactive),> 100 µM (inactive),> 100 µM (inactive),> 100 µM (inactive),97.1 µM (inactive)
COC(=O)C1=C(O)C(C(=O)OC)[C@@]2(O)[C@@H](C(=O)OC)[C@H](C)[C@@H](C)[C@@H]1[C@@H]2C(=O)OC (some centres not stated),> 100 µM (inactive),83.2 µM (inactive),51.9 µM (inactive),–,–,13.2 µM (inactive),> 100 µM (inactive),57.7 µM (inactive),55.7 µM (inactive),28.2 µM (inactive),44.9 µM (inactive),67.5 µM (inactive),–,34.8 µM (inactive),> 100 µM (inactive),38.5 µM (inactive),> 100 µM (inactive),> 100 µM (inactive),–,86.5 µM (inactive)
O=C1CSC2(CC(/C=C/c3ccccc3)=NN2c2cccc(S(=O)(=O)O)c2)N1c1nc2ccccc2s1 (configuration not stated),24.9 µM (inactive),69.7 µM (inactive),9.59 µM (inactive),17.9 µM (inactive),29.6 µM (inactive),22.1 µM (inactive),26 µM (inactive),26.7 µM (inactive),38.3 µM (inactive),21.8 µM (inactive),26.3 µM (inactive),41.3 µM (inactive),16.1 µM (inactive),19.4 µM (inactive),–,18.5 µM (inactive),17.1 µM (inactive),27.8 µM (inactive),38.5 µM (inactive),20.6 µM (inactive)
CCCCCCCCCC[C@@H](O)[C@@H]1CC[C@@H]([C@@H]2CC[C@@H]([C@@H](O)CCCCCCCCCCC(O)CC3=CC(C)OC3=O)O2)O1 (some centres not stated),1.26 µM (inactive),1.81 µM (inactive),1.05 µM (active),4.43 µM (inactive),8.2 µM (inactive),2.69 µM (inactive),5.61 µM (inactive),> 10 µM (inactive),> 10 µM (inactive),1.4 µM (inactive),1.28 µM (inactive),> 10 µM (inactive),> 10 µM (inactive),3.53 µM (inactive),> 10 µM (inactive),0.562 µM (active),0.984 µM (active),0.128 µM (active),–,–
Cc1ccc(/C=C2\CN(C)CC3=C2OC(N)=C(C#N)C3c2ccc(C)cc2)cc1 (configuration not stated),7.76 µM (inactive),20.3 µM (inactive),13.5 µM (inactive),13.4 µM (inactive),32 µM (inactive),11.3 µM (inactive),16 µM (inactive),–,16.1 µM (inactive),19.9 µM (inactive),17.9 µM (inactive),20.6 µM (inactive),7.5 µM (inactive),15.5 µM (inactive),30.1 µM (inactive),17.6 µM (inactive),7.11 µM (inactive),22.8 µM (inactive),19.5 µM (inactive),34.7 µM (inactive)
O=C1OC(=O)C2=C1C(c1cccs1)C=C(c1cccnc1)N2c1ccncc1 (configuration not stated),23.1 µM (inactive),–,13.2 µM (inactive),21.6 µM (inactive),20.7 µM (inactive),16.2 µM (inactive),18.7 µM (inactive),15.2 µM (inactive),16.8 µM (inactive),1.12 µM (active),17.3 µM (inactive),13.2 µM (inactive),13.8 µM (inactive),13.4 µM (inactive),16.6 µM (inactive),15.6 µM (inactive),18.2 µM (inactive),12.2 µM (inactive),15.1 µM (inactive),16.9 µM (inactive)
OC[C@H]1CCCC1O (some centres not stated),> 100 µM (inactive),> 100 µM (inactive),–,> 100 µM (inactive),> 100 µM (inactive),> 100 µM (inactive),> 100 µM (inactive),73.1 µM (inactive),> 100 µM (inactive),> 100 µM (inactive),> 100 µM (inactive),> 100 µM (inactive),> 100 µM (inactive),> 100 µM (inactive),> 100 µM (inactive),> 100 µM (inactive),> 100 µM (inactive),> 100 µM (inactive),> 100 µM (inactive),> 100 µM (inactive)
N#CC12C(=O)N3C(=NC(c4ccco4)NC3c3ccco3)C1(C#N)C(c1ccco1)NC1=C2CCCC1 (configuration not stated),> 100 µM (inactive),> 100 µM (inactive),> 100 µM (inactive),> 100 µM (inactive),> 100 µM (inactive),> 100 µM (inactive),> 100 µM (inactive),–,> 100 µM (inactive),> 100 µM (inactive),> 100 µM (inactive),> 100 µM (inactive),> 100 µM (inactive),> 100 µM (inactive),> 100 µM (inactive),> 100 µM (inactive),> 100 µM (inactive),> 100 µM (inactive),> 100 µM (inactive),> 100 µM (inactive)
